Experiments:
[1] = rat, in vivo
Procedure: Rats were obtained commercially and were pre-cannulated in the jugular vein. Animals were conscious at the time of the experiment. All animals were fasted overnight and until 4 hours post-dosing of a prodrug of Formula (I).
Rat blood samples (0.3 mL/sample) were collected from all animals prior to dosing and at different time-points up to 24 h post-dose into tubes containing EDTA. Two aliquots (100 μL each) were quenched with 300 μL methanol and stored at −20° C. prior to analysis.
To prepare analysis standards, 90 μL of rat blood was quenched with 300 μL methanol followed by 10 μL of spiking standard and/or 20 μL of internal standard. The sample tubes were vortexed for at least 2 min and then centrifuged at 3400 rpm for 20 min. […]
LC-MS-MS analysis was performed using an API 4000 equipped with Agilent 1100 HPLC and a Leap Technologies autosampler. […] Acamprosate was monitored in negative ion mode. […] Prodrug was monitored in positive ion mode. […]
The percent relative bioavailability (F %) of acamprosate was determined by comparing the area under the acamprosate concentration vs time curve (AUC) following oral or colonic administration of an acamprosate prodrug or acamprosate with the AUC of the acamprosate concentration vs time curve following intravenous administration of acamprosate on a dose normalized basis.

[2] = post-dose; doses about 1-2 gm per day; cited from earlier work
cocaine conditioned mice = settings: 100 mg/kg acamprosate for 3 days; cited from earlier work

SMILES: CC(=O)NCCCS(=O)(=O)OCC(C)(C)[C@@H](O)C(=O)OC(C)OC(=O)OC(C)C (stereo partly drawn) [Compound 40, (Methylethoxycarbonyloxy)ethyl (2R)-4-{[3-(acetylamino)propyl]sulfonyloxy}-2-hydroxy-3,3-dimethylbutanoate]
- acamprosate colonic bioavailability relative to the acamprosate colonic bioavailability of an equivalent dose of acamprosate itself [1]: at least 5 times
- acamprosate oral bioavailability relative to the acamprosate oral bioavailability of an equivalent dose of acamprosate itself [1]: at least 5 times

SMILES: CC(=O)NCCCS(=O)(=O)O [acamprosate, 3-(Acetylamino)propylsulfonic acid]
- time at which steady-state plasma concentration occurs [2]: 3 to 8 h
- relapse-like behavior (cocaine conditioned mice): attenuated relapse-like behavior
